According to paper PMC8308784, “Novel Purine Chemotypes with Activity against Plasmodium falciparum and Trypanosoma cruzi” (Pharmaceuticals, 2021):
Where “and” joins values, the source holds several entries; their conditions need not be identical. Identical values can stand only once. Like-named read-outs stand apart in the source and are kept apart here.

Legend:
[1] = test system: T. cruzi intracellular amastigotes; experiment: Antiamastigote growth inhibition assay; assay type: cell-based; settings: intracellular amastigotes in Vero cells, mean (SD), read-out: T. cruzi IC50 b (antiamastigote assay)
Experimental: Vero cells were seeded in T-175 flasks (5 × 10^6 cells per flask) in DMEM supplemented with 1% penicillin–streptomycin and 10% FBS, and cultured for 24 h. Then, cells were washed once with PBS, and free-swimming trypomastigotes (1 × 10^7 trypomastigotes per flask; MOI = 1) in assay medium were added and allowed 18 h to infect. After that, infected cell monolayers were washed with PBS and detached. Cells were counted and diluted to a concentration of 5 × 10^5 cells per mL, before adding 100 µL per well to test plates already containing the drugs dispensed as described above. In all cases, we included BNZ as control drug, and each plate contained its own negative (Vero cells and parasites) and positive (Vero cells) controls.
(§1) Absorbance values derived from the anti-T. cruzi assays and fluorescence values from the anti-P. falciparum and cell toxicity assays were normalized to the controls. In the primary screening at three fixed doses, the compounds’ inhibitory activity was expressed as a percentage of the negative control (100% parasitic growth). In dose–response assays, the compounds’ IC50 and TC50 values were determined with GraphPad Prism 7 software (version 7.00, 2016), using a non-linear regression analysis model defined by the following equation: Y=100 ÷(1+10^((LogIC50−X)×HillSlope))

HepG2 cells = experiment: HepG2 cell toxicity assay (alamarBlue); assay type: cell-based, human; settings: 2 days; minimum value of the 95% CI, except BNZ (mean (SD))
Experimental: (§2) Human erythrocytes were purified from B+ Rh+ blood samples and maintained at 4 °C in incomplete RPMI medium. Vero (green monkey kidney epithelial cells), LLC-MK2 (Rhesus monkey kidney epithelial cells), and HepG2 (human liver epithelial cells) cultures were cultivated in DMEM supplemented with 1% penicillin–streptomycin (PS) and 10% heat-inactivated fetal bovine serum (FBS) at 37 °C, 5% CO2, and >95% humidity, as described in [31]. HepG2 cells were also supplemented with 10% non-essential amino acids. Vero and MK2 cells were passaged twice per week at 1:12 ratios, while HepG2 cells were passaged at a 1:8 ratio.
(§3) Vero and HepG2 cells were detached, centrifuged, and resuspended in DMEM without phenol red. Cell viability was checked upon cell counting with trypan blue staining. Then, Vero and HepG2 cells were diluted at a concentration of 5 × 10^5 and 3.2 × 10^5 cells per mL, respectively, before adding 100 µL per well to the 96-well plate. Each run contained its own negative (untreated cells) and positive (medium alone) controls. Plates were incubated at 37 °C for 4 days in the case of Vero, or 2 in the case of HepG2 cells. Assay readout was made by adding 50 µL per well of a PBS solution containing 10% alamarBlue reagent (Thermo Fisher Scientific); then, plates were incubated for another 6 h at 37 °C, before recording the fluorescence intensity with a Tecan Infinite M Nano+ reader (excitation: 530 nm, emission: 590 nm).
as §1

Vero cells = experiment: Vero cell toxicity assay (alamarBlue); assay type: cell-based, green monkey; settings: 4 days; minimum value of the 95% CI, except BNZ (mean (SD))
Experimental: as §2, §3, §1

[2] = test system: T. cruzi Tulahuen strain expressing β-galactosidase; experiment: anti-T. cruzi dose-response growth inhibition assay (Vero cells plus trypomastigotes, CPRG readout); assay type: cell-based; settings: Vero cells plus trypomastigotes, MOI 1, four days, mean (SD), read-out: T. cruzi IC50 a (anti-T. cruzi assay)
Experimental: T. cruzi parasites from the Tulahuen strain (discrete typing unit (DTU) VI) expressing β-galactosidase were maintained in culture by the infection of LLC-MK2 cells in DMEM supplemented with 2% FBS and 1% penicillin–streptomycin–glutamine (PSG), as described in [52]. When free-swimming trypomastigotes were released to the culture medium, they were centrifuged for 7 min at 2500 rpm and allowed to swim out of the pellet. Trypomastigotes were used to maintain the parasite cycle, or for the performance of the antiparasitic assays.
T. cruzi growth was primarily analyzed under three different concentrations ([…]) of the 81 compounds. Conditions were tested in triplicate for every concentration. Z-values varied between 0.81 and 0.92 in the different plates analyzed. Selected compounds (34.6% potential hit rate) were further analyzed via standard growth inhibition assays. The Z-values of dose–response assays correlated with those previously reported. For both assays, Vero cells and trypomastigotes from the Tulahuen T. cruzi strain expressing β-galactosidase were harvested, centrifuged, and resuspended in DMEM without phenol red supplemented with 1% PSG, 2% FBS, 1 mM sodium pyruvate, and 25 mM HEPES. Vero cells and trypomastigotes were counted, diluted at a concentration of 1 × 10^6 cells/mL each, and mixed 1:1 (v/v). Then, 100 μL of that mixture was added per well to the plates already containing the compounds. Each well contained 50,000 host cells and 50,000 parasites, i.e., multiplicity of infection (MOI) = 1. BNZ was used as control of maximal drug growth inhibition in each round, whereas each plate contained its own negative control (maximum parasite growth; Vero cells plus parasites without drugs) and positive control (minimum parasite growth; trypomastigote forms alone marking an enzymatic zero time or baseline galactosidase activity). After four days at 37 °C, 50 µL of a PBS solution containing 0.25% NP40 and 500 µM chlorophenol red-β-D-galactopyranoside (CPRG) substrate were added per well [32]. Plates were incubated at 37 °C for 4 h, and their absorbance read out at 590 nm using an Epoch Gene5 spectrophotometer.
as §1

P. falciparum 3D7 = experiment: P. falciparum primary screening at three fixed concentrations; assay type: cell-based; settings: average of at least three experiments
Experimental: Apicomplexan parasite cultures were maintained at 3% hematocrit under an atmosphere of 37 °C in 93% N2, 5% CO2, and 2% O2, following standard methods. Synchronized cultures were obtained via 5% sorbitol lysis.
[…] Conditions were tested in triplicate for every concentration, and the test was repeated when the standard deviation was above 10% for any concentration. Z-values varied between 0.83 and 0.98 in the different plates analyzed. Selected compounds (12.3% potential hit rate) were further analyzed via standard growth inhibition assays, carried out as previously described in [54]. Briefly, parasitemia was adjusted to 1–1.3%, with >90% rings after sorbitol synchronization. Two hundred microliters of parasite culture were plated in 96-well microplates and incubated for 48 h at 37 °C in the presence of decreasing concentrations of the tested compounds, in triplicate. Parasitemia was determined by fluorescence-assisted cell sorting (FACS). Non-infected RBCs and samples containing parasitized RBCs (including controls with DMSO as carrier solvent) were diluted in PBS to a final concentration of ~1–10 × 10^6 cells/mL. The cell suspension was stained with SYTO 11 (0.5 mM stock in DMSO, Thermo Fisher Scientific, Waltham, MA, USA), to a final concentration of 0.5 μM. Samples were analyzed in a Becton Dickinson FACSCalibur. Sample excitation was carried out using a 488-nm, air-cooled argon-ion laser at a power of 15 mW, using forward and side scatter to gate the RBC population, and SYTO 11 green fluorescence (530 nm, FITC filter) was collected in a logarithmic scale. The single-cell population was selected on a forward–side scattergram, and the green fluorescence from this population was analyzed. Parasitemia was expressed as the number of parasitized cells per 100 erythrocytes.
as §1

Structure (SMILES)	IC50 ([1]; Trypanosoma cruzi)	HepG2 Cells TC50 (HepG2 cells)	Vero Cells TC50 (Vero cells)	IC50 ([2]; Trypanosoma cruzi, TULAHUEN, 96 h)	IC50 [1]	IC50 [2]	Primary screening, parasite growth relative to the negative control (P. falciparum 3D7; compound at 1 µM)	Primary screening, parasite growth relative to the negative control (P. falciparum 3D7; compound at 10 µM)	Primary screening, parasite growth relative to the negative control (P. falciparum 3D7; compound at 100 µM)
O=C(Cn1ccnc1[N+](=O)[O-])NCc1ccccc1 [BNZ, benznidazole, reference compound]	1.82 µM	255.3 (10.8) µM and 255.3 µM	209.5 (15.0) µM and 209.5 µM	1.72 µM	–	–	–	–	–
CN1CCN(n2cnc3c(OCc4ccccc4)ncnc32)CC1 [Compound 29]	–	>1000 µM	>1000 µM	–	157 µM	4.86 µM	100.58%	98.35%	63.21%
